Laboratory results taken from patent US6693115B2, “Acid addition salts of hydropyridine derivatives” (Sankyo Company, Limited, priority 2000, dated 2004).

Assays:
[1] = tested on: ADP-induced platelet aggregation; experiment: Inhibitory effect on platelet aggregation (feeding), ex vivo PRP after oral administration; format: in vivo, male beagle dogs; details: fed dogs, oral 0.3 mg/kg, ADP 20 μM, mean ± standard deviation; for Inhibition (%) of platelet aggregation 2 hours: 2 hours after administration; for Inhibition (%) of platelet aggregation 4 hours: 4 hours after administration
Description: Inhibitory Effect on Platelet Aggregation (Feeding)
For this test, male beagle dogs (about 10 kg in body weight, purchased from Kasho Co., Ltd. and Nippon Nosan Kogyo K.K.) were used. One group consisted of 5 or 6 dogs. The platelet aggregation was measured using an automatic platelet aggregometer (“PAM-6C”, trade name; a product of Mebanix Corporation) in accordance with the method of Born, et al. (J. Physiol., 168, 178 (1963)) with a partial modification.
Each of 2.5 hours and 4.5 hours after feeding, 5.4 ml of blood was collected from the cephalic vein of each dog using sodium citrate (0.6 ml, 3.8% (w/v)) as an anticoagulant. The citrate-added blood was centrifuged (240 g, 20 minutes) to separate platelet-rich plasma (hereinafter referred to as “PRP”) and platelet-poor plasma (hereinafter referred to as “PPP”). After the number of platelets in PRP was counted by an automatic hematology analyzer (“K-1000”, trade name; a product of Sysmex Corporation), PPP was added to adjust the number of platelets to 3×10^8/ml. PRP (240 μl) dispensed in a cuvette was set on the automatic platelet aggregometer. After preheating (at 37° C.) for 1 minute, 10 μl of ADP (final concentration: 20 μM) was added to cause platelet aggregation. For 10 minutes, platelet aggregation was measured and the maximum aggregation was determined to give the pre-administration value.
(§1) On the next day, 30 minutes after feeding, each test compound filled in a gelatin capsule was orally administered to the dogs. The blood was collected each of 2 and 4 hours after the administration. The platelet aggregation of PRP was measured, whereby the maximum aggregation was determined. The inhibition (%) of platelet aggregation by the test compound was calculated by comparing it with the pre-administration value.
In these tables, the term “hydrochloride” means 2-acetoxy-5-(α-cyclopropylcarbonyl-2-fluorobenzyl)-4,5,6-7-tetrahydrothieno[3,2-c]pyridine hydrochloride obtained in Example 1, “free form” means 2-acetoxy-5-(α-cyclopropylcarbonyl-2-fluorobenzyl)-4,5,6,7-tetrahydrothieno[3,2-c]pyridine, and “maleate” means 2-acetoxy-5-(α-cyclopropylcarbonyl-2-fluorobenzyl)-4,5,6,7-tetrahydrothieno[3,2-c]pyridine maleate obtained in Example 2.

[2] = tested on: ADP-induced platelet aggregation; experiment: Inhibitory effect on platelet aggregation (fasting), ex vivo PRP after oral administration; format: in vivo, male beagle dogs; details: Table 4, fasted dogs, oral 1.0 mg/kg, ADP 20 μM, mean ± standard deviation; for Inhibition (%) of platelet aggregation 2 hours: 2 hours after administration; for Inhibition (%) of platelet aggregation 4 hours: 4 hours after administration
Description: Inhibitory Effect on Platelet Aggregation (Fasting)
For this test, male beagle dogs (about 10 kg in body weight, purchased from Kasho Co., Ltd. and Nippon Nosan Kogyo K.K.) were used. One group consisted of 3 dogs. The platelet aggregation was measured using an automated platelet aggregometer (“PAM-6C”, trade name; a product of Mebanix Corporation) in accordance with the method of Born, et al. (J. Physiol., 168, 178(1963)) with a partial modification.
From the cephalic vein of each dog fasted overnight, 5.4 ml of the blood was collected using sodium citrate (0.6 ml, 3.8% (w/v)) as an anticoagulant. The resulting citrate-added blood was centrifuged (240 g, 20 minutes) to separate platelet-rich plasma (hereinafter referred to as “PRP”) and platelet-poor plasma (hereinafter referred to as “PPP”). After the number of platelets in PRP was counted by an automatic hematology analyzer (“K-1000”, trade name; a product of Sysmex Corporation), PPP was added to adjust the number of platelets to 3×10^8/ml. PRP (240 μl) dispensed in a cuvette was set on the automatic platelet aggregometer. After preheating (at 37° C.) for 1 minute, 10 μl of ADP (final concentration: 20 μM) was added to cause platelet aggregation. For 10 minutes, platelet aggregation was measured and the maximum aggregation was determined to give the pre-administration value.
as §1, with “day,” for “day, 30 minutes after feeding,”, “after” for “after the”
In this table, the term “maleate” means 2-acetoxy-5-(α-cyclopropylcarbonyl-2-fluorobenzyl)-4,5,6,7-tetrahydrothieno[3,2-c]pyridine maleate obtained in Example 2, while the term “free form” means 2-acetoxy-5-(α-cyclopropylcarbonyl-2-fluorobenzyl)-4,5,6,7-tetrahydrothieno[3,2-c]pyridine.

[3] = Storage stability of crystal forms; format: physicochemical; details: comparison between hydrochloride crystal forms

Compound | Inhibition (%) of platelet aggregation 2 hours ([1]; Table 2) [%] | Inhibition (%) of platelet aggregation 4 hours ([1]; Table 2) [%] | Inhibition (%) of platelet aggregation 2 hours ([1]; Table 3) [%] | Inhibition (%) of platelet aggregation 4 hours ([1]; Table 3) [%] | Inhibition (%) of platelet aggregation 2 hours [2] [%] | Inhibition (%) of platelet aggregation 4 hours [2] [%] | storage stability [3]
CC(=O)Oc1cc2c(s1)CCN(C(C(=O)C1CC1)c1ccccc1F)C2 (stereo not drawn) [Free form, 2-Acetoxy-5-(α-cyclopropylcarbonyl-2-fluorobenzyl)-4,5,6,7-tetrahydrothieno[3,2-c]pyridine, reference compound] | 25.8 ± 10.9 | 28.6 ± 14.2 | 21.7 ± 9.8 | 23.8 ± 12.6 | 27.9 ± 24.8 | 28.7 ± 24.4 | –
CC(=O)Oc1cc2c(s1)CCN(C(C(=O)C1CC1)c1ccccc1F)C2.Cl (stereo not drawn) [Hydrochloride, 2-Acetoxy-5-(α-cyclopropylcarbonyl-2-fluorobenzyl)-4,5,6,7-tetrahydrothieno[3,2-c]pyridine hydrochloride (crystal A)] | 49.0 ± 18.7 | 48.5 ± 18.3 | – | – | – | – | –
CC(=O)Oc1cc2c(s1)CCN(C(C(=O)C1CC1)c1ccccc1F)C2.O=C(O)/C=C\C(=O)O (stereo not drawn) [Maleate, 2-Acetoxy-5-(α-cyclopropylcarbonyl-2-fluorobenzyl)-4,5,6,7-tetrahydrothieno[3,2-c]pyridine maleate] | – | – | 50.9 ± 14.5 | 58.6 ± 15.7 | 63.4 ± 22.9 | 88.5 ± 5.7 | –
CC(=O)Oc1cc2c(s1)CCN(C(C(=O)C1CC1)c1ccccc1F)C2.Cl (stereo not drawn) [crystal B1, 2-Acetoxy-5-(α-cyclopropylcarbonyl-2-fluorobenzyl)-4,5,6,7-tetrahydrothieno[3,2-c]pyridine Hydrochloride (Crystal B1)] | – | – | – | – | – | – | more excellent storage stability than crystal A
CC(=O)Oc1cc2c(s1)CCN(C(C(=O)C1CC1)c1ccccc1F)C2.Cl (stereo not drawn) [crystal B2, 2-Acetoxy-5-(α-cyclopropylcarbonyl-2-fluorobenzyl)-4,5,6,7-tetrahydrothieno[3,2-c]pyridine hydrochloride (crystal B2)] | – | – | – | – | – | – | more excellent storage stability than crystal B1
